Measurements taken from publication PMC8298602, “14-3-3-protein regulates Nedd4-2 by modulating interactions between HECT and WW domains” (Communications Biology, 2021).
Non-standard residues stand in square brackets, D forms with d. Residues, ends and D or L forms follow the SMILES beside them. *: point of attachment. FITC = O=C1OC2(c3ccc(O)cc3Oc3cc(O)ccc32)c2ccc(NC(=S)*)cc21; pT = C[C@@H](OP(=O)(O)O)[C@H](N)C(=O)O; pS = N[C@@H](COP(=O)(O)O)C(=O)O

Experiments:
Assay type in all cases: binding
Settings in all cases: 14-3-3 titrated 80 to 0.003418, three replicates
[1] = target: T1, 14-3-3β (Homo sapiens, UniProt P31946); experiment: fluorescence polarization (FP) with FITC-labeled phosphopeptides, 14-3-3β
T1 sequence (P31946 1-246): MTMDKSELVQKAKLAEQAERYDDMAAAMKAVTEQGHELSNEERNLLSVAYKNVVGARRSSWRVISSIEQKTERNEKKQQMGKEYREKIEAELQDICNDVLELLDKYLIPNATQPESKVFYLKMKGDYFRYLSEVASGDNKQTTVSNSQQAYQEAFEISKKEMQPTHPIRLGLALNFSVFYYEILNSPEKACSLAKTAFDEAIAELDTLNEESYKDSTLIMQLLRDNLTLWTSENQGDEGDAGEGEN
Protocol: (§1) Fig. 4 14-3-3 isoform binding specificity of Nedd4-2 phosphomotifs. Binding of FITC-labeled phosphopeptides with 14-3-3 binding motifs of Nedd4-2 (pSer^342, pThr^367 or pSer^448) to all human 14-3-3 isoforms was characterized by FP titrations. The binding affinities of these peptides were determined by fitting FP data to a one-site binding model. The corresponding sequences of these peptides are shown at the top. Background polarization was subtracted from all values. Results are expressed as mean ± SD (n = 3). Error bars are not visible if they are smaller than the size of the symbol.
(§2) The FP assay was performed using a CLARIOstar microplate reader (BMG Labtech, […]) on 384-well black low-volume flat-bottom plates (Corning, New York, USA) in a buffer containing 10 mM HEPES (pH 7.4), 150 mM NaCl, 0.1% (v/v) Tween 20 and 0.1% (w/v) BSA. […] The excitation and emission wavelengths were 482 nm and 530 nm, respectively. The KD values were determined as the mean of three independent measurements using GraphPad Prism version 8.0.1 for Windows, GraphPad Software, La Jolla California USA, www.graphpad.com.
(§3) Results from the FP assay (Fig. 4) and immunoblot (Supplementary Fig. S1) are represented as means ± SD from three replicates as indicated in the figure legend. Statistical analysis for the data from immunoblot were performed using Graph-Pad Prism 8.4. Student’s t-test was used for comparison of relative changes of samples with and without 14-3-3η at selected timepoints (ns, non-significant P > 0.05; *, P < 0.05).

[2] = target: T2, 14-3-3γ (Homo sapiens, UniProt P61981); experiment: fluorescence polarization (FP) with FITC-labeled phosphopeptides, 14-3-3γ
T2 sequence (P61981 1-247): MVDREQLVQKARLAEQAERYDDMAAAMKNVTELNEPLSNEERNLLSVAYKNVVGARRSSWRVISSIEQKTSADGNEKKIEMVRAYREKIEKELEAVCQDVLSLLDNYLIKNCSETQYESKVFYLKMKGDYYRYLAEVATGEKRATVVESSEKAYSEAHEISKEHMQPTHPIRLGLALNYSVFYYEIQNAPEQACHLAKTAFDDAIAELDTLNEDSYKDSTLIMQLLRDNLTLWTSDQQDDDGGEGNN
Protocol: as §1, §2, §3

[3] = target: T3, 14-3-3ε (Homo sapiens, UniProt P62258); experiment: fluorescence polarization (FP) with FITC-labeled phosphopeptides, 14-3-3ε
T3 sequence (P62258 1-255): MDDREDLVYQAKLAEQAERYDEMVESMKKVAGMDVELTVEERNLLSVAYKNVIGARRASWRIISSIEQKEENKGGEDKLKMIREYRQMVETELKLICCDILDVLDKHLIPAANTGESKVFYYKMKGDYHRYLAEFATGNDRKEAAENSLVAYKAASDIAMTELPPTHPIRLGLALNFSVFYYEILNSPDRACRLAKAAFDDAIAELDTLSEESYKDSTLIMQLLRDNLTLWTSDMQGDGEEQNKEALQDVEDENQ
Protocol: as §1, §2, §3

[4] = target: T4, 14-3-3ζ (Homo sapiens, UniProt P63104); experiment: fluorescence polarization (FP) with FITC-labeled phosphopeptides, 14-3-3ζ
T4 sequence (P63104 1-245): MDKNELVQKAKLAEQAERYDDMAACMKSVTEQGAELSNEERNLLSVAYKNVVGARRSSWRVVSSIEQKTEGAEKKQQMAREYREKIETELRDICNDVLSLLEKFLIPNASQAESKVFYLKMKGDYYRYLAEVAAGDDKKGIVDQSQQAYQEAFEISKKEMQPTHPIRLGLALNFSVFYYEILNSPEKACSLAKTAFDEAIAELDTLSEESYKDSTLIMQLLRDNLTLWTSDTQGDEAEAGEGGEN
Protocol: as §1, §2, §3

[5] = target: T5, 14-3-3η (Homo sapiens, UniProt Q04917); experiment: fluorescence polarization (FP) with FITC-labeled phosphopeptides, 14-3-3η
T5 sequence (Q04917 1-246): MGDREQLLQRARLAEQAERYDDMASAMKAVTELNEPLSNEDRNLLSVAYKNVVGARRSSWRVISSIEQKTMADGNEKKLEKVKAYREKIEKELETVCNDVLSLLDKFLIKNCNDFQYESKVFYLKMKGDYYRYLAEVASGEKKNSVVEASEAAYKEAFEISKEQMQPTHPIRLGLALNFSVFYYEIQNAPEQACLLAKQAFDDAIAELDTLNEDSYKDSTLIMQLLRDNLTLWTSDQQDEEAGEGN
Protocol: as §1, §2, §3

[6] = target: T6, 14-3-3σ (Homo sapiens, UniProt P31947); experiment: fluorescence polarization (FP) with FITC-labeled phosphopeptides, 14-3-3σ
T6 sequence (P31947 1-248): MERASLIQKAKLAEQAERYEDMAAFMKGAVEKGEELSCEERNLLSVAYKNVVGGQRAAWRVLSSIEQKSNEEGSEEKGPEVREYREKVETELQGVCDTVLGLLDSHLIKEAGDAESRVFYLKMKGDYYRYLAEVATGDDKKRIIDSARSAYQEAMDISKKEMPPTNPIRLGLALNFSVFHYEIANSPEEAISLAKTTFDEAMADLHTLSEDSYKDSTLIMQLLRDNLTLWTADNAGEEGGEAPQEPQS
Protocol: as §1, §2, §3

[7] = target: T7, 14-3-3τ (Homo sapiens, UniProt P27348); experiment: fluorescence polarization (FP) with FITC-labeled phosphopeptides, 14-3-3τ
T7 sequence (P27348 1-245): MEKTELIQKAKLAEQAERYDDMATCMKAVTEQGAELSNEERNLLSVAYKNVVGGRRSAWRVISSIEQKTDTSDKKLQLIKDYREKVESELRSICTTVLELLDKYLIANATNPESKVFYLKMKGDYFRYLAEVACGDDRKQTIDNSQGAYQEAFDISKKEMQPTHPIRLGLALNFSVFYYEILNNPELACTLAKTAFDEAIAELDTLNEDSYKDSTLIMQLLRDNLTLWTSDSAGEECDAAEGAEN
Protocol: as §1, §2, §3

## CC(C)C[C@H](NC(=S)Nc1ccc2c(c1)C(=O)OC21c2ccc(O)cc2Oc2cc(O)ccc21)C(=O)N[C@@H](CCCNC(=N)N)C(=O)N[C@@H](CO)C(=O)N[C@@H](CS)C(=O)N[C@@H](COP(=O)(O)O)C(=O)N[C@H](C(=O)N[C@H](C(=O)N[C@@H](CC(=O)O)C(=O)N[C@@H](C)C(=O)N[C@H](C(=O)O)C(C)C)[C@@H](C)O)C(C)C [Nedd4-2 peptide pS342] ({FITC}-LRSC[pS]VTDAV-OH; C-terminus assumed)
[1]
  Bmax (One site -- Specific binding, best-fit value): 0.1665
[2]
  Bmax (One site -- Specific binding, best-fit value): 0.2226
[3]
  Bmax (One site -- Specific binding, best-fit value): 0.261
[4]
  Bmax (One site -- Specific binding, best-fit value): 0.1453
[5]
  Bmax (One site -- Specific binding, best-fit value): 0.164
[6]
  Bmax (One site -- Specific binding, best-fit value): 0.9999
[7]
  Bmax (One site -- Specific binding, best-fit value): 0.1186

## CC(C)[C@H](NC(=O)[C@@H](NC(=O)[C@H](CO)NC(=O)[C@H](CO)NC(=O)[C@H](CCCNC(=N)N)NC(=O)[C@H](C)NC(=S)Nc1ccc2c(c1)C(=O)OC21c2ccc(O)cc2Oc2cc(O)ccc21)[C@@H](C)OP(=O)(O)O)C(=O)N[C@H](C(=O)NCC(=O)NCC(=O)N[C@@H](CCC(=O)O)C(=O)O)[C@@H](C)O [Nedd4-2 peptide pT367] ({FITC}-ARSS[pT]VTGGE-OH; C-terminus assumed)
[1]
  Bmax (One site -- Specific binding, best-fit value): 0.9561
[2]
  Bmax (One site -- Specific binding, best-fit value): 0.9894
[3]
  Bmax (One site -- Specific binding, best-fit value): 0.3092
[4]
  Bmax (One site -- Specific binding, best-fit value): 1.002
[5]
  Bmax (One site -- Specific binding, best-fit value): 0.8265
[6]
  Bmax (One site -- Specific binding, best-fit value): 0.1205
[7]
  Bmax (One site -- Specific binding, best-fit value): 0.7863

## CC(C)C[C@H](NC(=O)[C@H](CO)NC(=O)[C@H](CCCNC(=N)N)NC(=O)[C@@H]1CCCN1C(=S)Nc1ccc2c(c1)C(=O)OC21c2ccc(O)cc2Oc2cc(O)ccc21)C(=O)N[C@@H](COP(=O)(O)O)C(=O)N[C@@H](CO)C(=O)N1CCC[C@H]1C(=O)N[C@H](C(=O)N[C@H](C(=O)N[C@H](C(=O)O)[C@@H](C)O)C(C)C)[C@@H](C)O [Nedd4-2 peptide pS448] ({FITC}-PRSL[pS]SPTVT-OH; C-terminus assumed)
[1]
  Bmax (One site -- Specific binding, best-fit value): 1
[2]
  Bmax (One site -- Specific binding, best-fit value): 0.9424
[3]
  Bmax (One site -- Specific binding, best-fit value): 0.7529
[4]
  Bmax (One site -- Specific binding, best-fit value): 0.9954
[5]
  Bmax (One site -- Specific binding, best-fit value): 0.8968
[6]
  Bmax (One site -- Specific binding, best-fit value): 0.7456
[7]
  Bmax (One site -- Specific binding, best-fit value): 0.8496
